PubChem BioAssay (NCI)
Where “and” joins values, the source holds several entries; their conditions need not be identical. Equal values may be shown once.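 1) Cells in 96-well plates. 2) Compound, 48 h, 5 concentrations. 3) Linear interpolation between surrounding doses. 4) Unreached endpoint = highest concentration. Abbreviation: GI50, concentration required for 50% inhibition of growth. TGI is the concentration that stops growth completely.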

Each compound was assayed on SNB-75 CNS (assay: growth of human tumour cells (NCI), 48 h).

Structure (SMILES) | GI50 | TGI
COc1ccc(-c2nccn2-c2ccc(OC)cc2)cc1 | 5.06 µM | 30.3 µM
O=C(/C=C/c1ccccc1)c1ccccc1 |  | > 10 µM
CC(C)[C@H](O)C(=O)N[C@@H](C)C(=O)N[C@@H]1C(=O)N(C)CCc2ccccc21 | > 100 µM | > 100 µM
C=CC(=O)N1CN(C(=O)C=C)CN(C(=O)C=C)C1 | 8.9 µM | > 100 µM
ClC(Cl)=C1C(=C(Cl)Cl)C(Cl)(Cl)C1(Cl)Cl |  | 13.5 µM
C#CCOc1cccc(Nc2ncnc3c(NC(=O)C=C)cccc23)c1 | 17.6 µM | > 100 µM
CO[C@H]1Nc2c(ccc(C)c2O)C(=O)N2C=C(/C=C/C(N)=O)C[C@@H]12 |  | 0.0576 µM
O=C(/C(=C\c1c(-c2ccccc2)[nH]c2ccccc12)S(=O)(=O)c1ccccc1)c1ccccc1 | 10.1 µM | > 100 µM
CCNC(=O)/C(=C/c1ccc(OC)cc1)c1cc(OC)c(OC)c(OC)c1 |  | > 73.4 µM
Cc1ccc(OCCOCCOCCOCCOc2ccc(C)n(O)c2=S)c(=S)n1O | 3.49 µM | > 100 µM
COc1ccc(-c2ccc3c(N4CCOC[C@@H]4C)nc(N4CCOC[C@@H]4C)nc3n2)cc1CO | 0.0039 µM and < 0.01 µM | 0.0237 µM and 0.0359 µM
N[C@H](CCC(=O)N[C@@H](Cc1c[nH]c2ccccc12)C(=O)O)C(=O)O | > 100 µM | > 100 µM
COc1ccc(-c2nc(-c3cc(OC)cc(OC)c3)[nH]c2-c2ccc(OC)cc2)cc1 | > 100 µM | > 100 µM
Nc1ccccc1O.O.O=C(O)C1[O][Sb][O]C1C(=O)O (stereo unspecified) | 24.9 µM | 40.5 µM
O=C(c1ccco1)c1c(C(F)(F)F)n([O-])c2ccc(C(F)(F)F)cc2[n+]1=O | 0.576 µM | 1.55 µM
OC(c1cc(-c2ccc(C(F)(F)F)cc2)nc(C(F)(F)F)c1)C1CCCCN1 (stereo unspecified) | 1.37 µM and 3.96 µM | 2.69 µM and 10.6 µM
CCCCCCCCCCNC(=O)CI | 1.64 µM | 3.09 µM
CCc1ccc2c(c1)C(=O)c1c-2n(CCCN=[N+]=[N-])c(=O)c2cc([N+](=O)[O-])ccc12 | 25.5 µM | > 50 µM
Cc1cc(N/N=C/c2ccccn2)nc2ccccc12 | 0.461 µM | 15.2 µM
CC1CC(O)C(=O)C(O[C@@H]2C[C@@H]3CC[C@@H]4[C@H](CC[C@]5(C)C(C6=CC(=O)OC6)CC[C@]45O)[C@@]3(C=O)C[C@H]2O)O1 (stereo partly specified) |  | 0.18 µM

The compounds below were run on SR leukemia (assay: growth of human tumour cells (NCI), 48 h).

Structure (SMILES) | GI50 | TGI
O=C1CCCN1c1ccccc1I(=O)=O | 95.6 µM | > 100 µM
COC(=O)C1=COC(C)C2CN3CCc4c([nH]c5ccccc45)C3CC12 (stereo unspecified) | 12.6 µM and 27.8 µM | 39.2 µM and > 100 µM
O=C(NCc1ccc(Cn2c(=O)sn(-c3ccccc3)c2=O)cc1)OCc1ccc2cccc(O)c2n1 | 0.383 µM | > 100 µM
COC(c1ccc(C(C)(C)C)cc1)(c1ccc(C(C)(C)C)cc1)c1ccc(C(C)(C)C)cc1 |  | > 100 µM
CC(C)c1[nH]nc2c1N=C(c1ccccc1Cl)c1cc([N+](=O)[O-])ccc1N2 | 1.51 µM | 10 µM
Nc1cc2c(cc1Br)[nH]c(=O)c1ccccc12 | 5.07 µM | 47.2 µM
COc1ccc(-c2nccn2-c2ccc(OC)cc2)cc1 | 0.64 µM | 30.8 µM
O=C(/C=C/c1ccccc1)c1ccccc1 |  | > 10 µM
COc1cc2c(/C=N\N=C(N)N)c[nH]c2cc1C | 16.5 µM | 30.1 µM
CC(C)[C@H](O)C(=O)N[C@@H](C)C(=O)N[C@@H]1C(=O)N(C)CCc2ccccc21 | > 100 µM | > 100 µM
C=CC(=O)N1CN(C(=O)C=C)CN(C(=O)C=C)C1 | 2.46 µM | 6.82 µM
ClC(Cl)=C1C(=C(Cl)Cl)C(Cl)(Cl)C1(Cl)Cl |  | 3.46 µM
C#CCOc1cccc(Nc2ncnc3c(NC(=O)C=C)cccc23)c1 | 4.37 µM | > 100 µM
CO[C@H]1Nc2c(ccc(C)c2O)C(=O)N2C=C(/C=C/C(N)=O)C[C@@H]12 |  | > 100 µM
O=C(/C(=C\c1c(-c2ccccc2)[nH]c2ccccc12)S(=O)(=O)c1ccccc1)c1ccccc1 | 9.91 µM | > 100 µM
